Source: ChEMBL document CHEMBL6103613 (J Med Chem, 2025)
pKd: −log10 of the molar value. Converted amounts (≈) assume the structure as drawn. The source made the active and inactive calls. No cut-off for these calls is given here.

Experiments:
[1] = Toxicity in mouse assessed as survival rate at 50 mg/kg, ip measured for 7 days; format: organism-based; conditions: in vivo, time 7 day
[2] = tested on: Staphylococcus aureus; assay: Antimicrobial activity against Staphylococcus aureus ATCC 25923 incubated for 1 hr in presence of PG; format: functional
[3] = tested on: Candida albicans; assay: Antifungal activity against Candida albicans assessed as reduction in fungal growth incubated for 18 hrs by CLSI based analysis; format: functional
[4] = tested on: Staphylococcus aureus; assay: Antibacterial activity against methicillin-resistant Staphylococcus aureus infected in kunming mouse peritonitis model assessed as reduction in bacterial colonies in blood at 5 mg/kg, ip measured upto 8 days; format: functional, organism-based; conditions: time <= 8.0 day
[5] = Toxicity in mouse assessed as signs of drowsiness at 50 mg/kg, ip measured for 7 days; format: organism-based; conditions: in vivo, 168 h, time 7 day
[6] = tested on: Staphylococcus aureus; assay: Upregulation of Mnh1 expression in Staphylococcus aureus at 12.5 microg/ml incubated for 3 hrs by RNA sequencing analysis; format: functional; conditions: dose 12.5 µg/ml
[7] = tested on: Staphylococcus aureus; assay: Upregulation of ahpC6 expression in Staphylococcus aureus at 12.5 microg/ml incubated for 3 hrs by RNA sequencing analysis; format: functional; conditions: dose 12.5 µg/ml
[8] = tested on: Staphylococcus aureus; assay: Antimicrobial activity against Staphylococcus aureus at pH 5.4 to 6.4 incubated for 0.5 hrs; format: functional, organism-based
[9] = tested on: Staphylococcus aureus; assay: Antimicrobial activity against Staphylococcus aureus incubated for 0.5 hrs in presence of NA+; format: functional, organism-based
[10] = tested on: Staphylococcus aureus; assay: Antimicrobial activity against Staphylococcus aureus incubated for 0.5 hrs in presence of Fe2+; format: functional, organism-based
[11] = tested on: Cell membrane; assay: Disruption of cell membrane integrity in Staphylococcus aureus at 4 times of MIC incubated for 1 mins by Propidium iodide staining based analysis; format: subcellular
[12] = tested on: Staphylococcus aureus; assay: Inhibition of biofilm formation in Staphylococcus aureus at 1 to 16 times MIC by hochest33342/PI staining based analysis; format: functional
[13] = tested on: Staphylococcus aureus; assay: Upregulation of CwrA expression in Staphylococcus aureus at 12.5 microg/ml incubated for 3 hrs by RNA sequencing analysis; format: functional; conditions: dose 12.5 µg/ml
[14] = Toxicity in mouse assessed as spleen damage at 50 mg/kg, ip measured for 7 days by H and E staining based analysis; format: organism-based; conditions: in vivo, 168 h, time 7 day
[15] = Toxicity in mouse assessed as change in bowel movement intake at 50 mg/kg, ip measured for 7 days; format: organism-based; conditions: in vivo, 168 h, time 7 day
[16] = Toxicity in mouse assessed as change in body weight gain at 50 mg/kg, ip measured for 7 days; format: organism-based; conditions: in vivo, 168 h, time 7 day
[17] = tested on: Staphylococcus aureus; assay: Antibacterial activity against methicillin-resistant Staphylococcus aureus infected in kunming mouse peritonitis model assessed as reduction in bacterial colonies in lung at 5 mg/kg, ip measured upto 8 days; format: functional, organism-based; conditions: time <= 8.0 day
[18] = tested on: Staphylococcus aureus; assay: Antibacterial activity against methicillin-resistant Staphylococcus aureus infected in kunming mouse peritonitis model assessed as reduction in bacterial colonies in spleen at 5 mg/kg, ip measured upto 8 days; format: functional, organism-based; conditions: time <= 8.0 day
[19] = tested on: Staphylococcus aureus; assay: Upregulation of dltB expression in Staphylococcus aureus at 12.5 microg/ml incubated for 3 hrs by RNA sequencing analysis; format: functional; conditions: dose 12.5 µg/ml
[20] = tested on: Enterococcus gallinarum; assay: Antimicrobial activity against Enterococcus gallinarum ATCC 49573 assessed as inhibition of visible bacterial growth incubated for 18 hrs by CLSI based analysis; format: functional
[21] = tested on: Staphylococcus aureus; assay: Antimicrobial activity against Staphylococcus aureus ATCC 25923 incubated for 1 hr in presence of PGN; format: functional
[22] = Toxicity in mouse assessed as change in behavior at 50 mg/kg, ip measured for 7 days; format: organism-based; conditions: in vivo, 168 h, time 7 day
[23] = Toxicity in mouse assessed as kidney damage at 50 mg/kg, ip measured for 7 days by H and E staining based analysis; format: organism-based; conditions: in vivo, 168 h, time 7 day
[24] = Toxicity in mouse assessed as change in food intake at 50 mg/kg, ip measured for 7 days; format: organism-based; conditions: in vivo, 168 h, time 7 day
[25] = tested on: Peptidoglycan; assay: Binding affinity to Staphylococcus aureus peptidoglycan assessed as dissociation constant by ITC analysis
[26] = Toxicity in mouse assessed as organ damage by measuring thickened alveolar wall in lungs at 5 mg/kg, ip measured upto 8 days; format: organism-based; conditions: in vivo, 192 h, time < 8 day
[27] = tested on: RAW264.7; assay: Cytotoxicity against mouse RAW264.7 cells assessed as cell viability at 6.25 to 100 microg/ml incubated for 24 hrs by MTT assay; format: toxicity, cell-based; conditions: raw264.7, 24 h
[28] = tested on: Staphylococcus aureus; assay: Upregulation of dltD expression in Staphylococcus aureus at 12.5 microg/ml incubated for 3 hrs by RNA sequencing analysis; format: functional; conditions: dose 12.5 µg/ml
[29] = tested on: Staphylococcus aureus; assay: Antimicrobial activity against Staphylococcus aureus ATCC 25923 assessed as inhibition of visible bacterial growth incubated for 18 hrs by CLSI based analysis; format: functional
[30] = tested on: Staphylococcus aureus; assay: Antibacterial activity against methicillin-resistant Staphylococcus aureus infected in kunming mouse pneumonia model assessed as decrease in IL-10 expression in lung at 5 mg/kg, ip measured upto 8 days; format: functional, organism-based; conditions: time <= 8.0 day
[31] = tested on: Staphylococcus aureus; assay: Antibacterial activity against methicillin-resistant Staphylococcus aureus infected in kunming mouse keratitis model measured upto 24 hrs; format: functional, organism-based
[32] = tested on: Staphylococcus aureus; assay: Antimicrobial activity against Staphylococcus aureus at 100 degreeC incubated for 0.5 hrs; format: functional, organism-based
[33] = tested on: Staphylococcus aureus; assay: Inhibition of biofilm formation in Staphylococcus aureus at 1 to 16 times MIC by crystal violet staining based analysis; format: functional
[34] = tested on: Staphylococcus aureus; assay: Induction of ROS production in Staphylococcus aureus assessed as increase in fluorescence intensity at 4 times MIC by DCFH-DA probe based assay; format: functional, organism-based
[35] = tested on: Staphylococcus aureus; assay: Antibacterial activity against methicillin-resistant Staphylococcus aureus infected in kunming mouse pneumonia model assessed as decrease in TNF-alpha expression in lung at 5 mg/kg, ip measured upto 8 days; format: functional, organism-based; conditions: time <= 8.0 day
[36] = tested on: Cell membrane; assay: Induction of cell membrane depolarization in Staphylococcus aureus assessed as increase in fluorescence intensity at 1 to 8 times MIC by DiOC2 (3) dye based assay; format: subcellular
[37] = tested on: Staphylococcus aureus; assay: Antimicrobial activity against Staphylococcus aureus ATCC 25923 incubated for 1 hr in presence of PE; format: functional
[38] = Hemolytic activity against mouse Red blood cells at 100 microg/ml incubated for 1 hr relative to control; format: toxicity, cell-based, Erythrocyte; conditions: at 100 µg/mL, read-out: Activity
[39] = tested on: Peptidoglycan; assay: Binding affinity to Staphylococcus aureus peptidoglycan assessed as change in entropy by ITC analysis
[40] = tested on: Staphylococcus aureus; assay: Upregulation of thiol peroxidase expression in Staphylococcus aureus at 12.5 microg/ml incubated for 3 hrs by RNA sequencing analysis; format: functional, organism-based; conditions: dose 12.5 µg/ml
[41] = tested on: Cell membrane; assay: Disruption of cell membrane integrity in Staphylococcus aureus at 4 times of MIC incubated upto 20 mins by fluorescence microscopic analysis; format: subcellular
[42] = tested on: Staphylococcus aureus; assay: Antimicrobial activity against methicillin-resistant Staphylococcus aureus clinical isolate 2 assessed as inhibition of visible bacterial growth incubated for 18 hrs by CLSI based analysis; format: functional
[43] = Stability of compound in mouse serum measured after 24 hrs; format: ADME, cell-free
[44] = tested on: Staphylococcus aureus; assay: Antimicrobial activity against methicillin-resistant Staphylococcus aureus ATCC 43300 assessed as inhibition of visible bacterial growth incubated for 18 hrs by CLSI based analysis; format: functional
[45] = tested on: Cell membrane; assay: Disruption of cell membrane integrity in Staphylococcus aureus at 4 times of MIC incubated for 30 mins by Propidium iodide staining based analysis; format: subcellular
[46] = tested on: Peptidoglycan; assay: Binding affinity to Staphylococcus aureus peptidoglycan assessed as change in enthalpy by ITC analysis
[47] = tested on: Staphylococcus aureus; assay: Antimicrobial activity against methicillin-resistant Staphylococcus aureus clinical isolate 3 assessed as inhibition of visible bacterial growth incubated for 18 hrs by CLSI based analysis; format: functional

CC(C)[C@@H]1NC(=O)[C@@H](C(C)C)NC(=O)[C@H](C(C)C)NC(=O)[C@@H](CCCCN)NC(=O)[C@H](Cc2c(C(c3ccccc3)(c3ccccc3)c3ccccc3)[nH]c3ccccc23)NC(=O)[C@@H](C(C)C)NC(=O)[C@@H]2CSC1N2 gave a survival at 168 h [1] of 100%, an MIC [2] greater than 50 µg/mL and an MIC [3] of 3.13 µg/mL (≈ 3.01 µM). For the same compound, the Activity [4] was “Active”, the Activity [5] was “Non-toxic” and the Activity [6] was “Active”. The Activity [7] was “Active”, the Activity [8] was “Active” and the Activity [9] was “Active”. The Activity [10] was “Active”, the Activity [11] was 26.2% and the “inhibition (INH)” value [12] was roughly 100%. For the same compound, the Activity [13] was “Active”, the Activity [14] was “Non-toxic” and the Activity [15] was “Non-toxic”. The Activity [16] was “Non-toxic”, the Activity [17] was “Active” and the Activity [18] was “Active”. The Activity [19] was “Active”, the MIC [20] was 12.5 µg/mL (≈ 12 µM) and the MIC [21] was greater than 50 µg/mL. The Activity [22] was “Non-toxic”, the Activity [23] was “Non-toxic” and the Activity [24] was “Non-toxic”. For the same compound, the pKd [25] was 6.21, the Activity [26] was “Non-toxic” and the Activity [27] was “Non-toxic”. For the same compound, the Activity [28] was “Active”, the MIC [29] was 6.25 µg/mL (≈ 6.01 µM) and the Activity [30] was “Active”. The Activity [31] was “Active”, the Activity [32] was “Active” and the “inhibition (INH)” value [33] was roughly 100%. The Activity [34] was “Active”, the Activity [35] was “Active” and the Activity [36] was “Dose-dependent-effect”. The MIC [37] was greater than 50 µg/mL, the hemolysis at 1 h, 100 microg/ml [38] was less than 5% and the TdeltaS [39] was 7.55 kcal/mol. The Activity [40] was “Active”, the Activity [41] was “Active” and the MIC [42] was 6.25 µg/mL (≈ 6.01 µM). For the same compound, the Stability [43] was “Stable”, the MIC [44] was 6.25 µg/mL (≈ 6.01 µM) and the Activity [45] was 46.7%. The deltaH [46] was 0.925 kcal/mol and the MIC [47] was 12.5 µg/mL (≈ 12 µM).
